Data reported in patent US20210386720A1, “METHODS OF TREATING CNS TUMORS WITH TESETAXEL” (Odonate Therapeutics, Inc., priority 2018, published 2021).

Experiments:
taxane-resistant tumors = assay: Nonclinical studies of activity against taxane-resistant tumors
[1] = Human plasma and CNS tissue binding by rapid equilibrium dialysis; format: in vitro ADME
[2] = In vivo tissue distribution of 14C-tesetaxel in dogs; design: species or system dog; settings: for t1/2 / Cerebellum / Cerebrum / Plasma: 0.6 mg/kg; for Cerebellum / Cerebrum / Plasma: 14 days post-dose, radioactivity
Description: (§1) The in vivo tissue distribution of tesetaxel was previously investigated in mice treated with ^14C-tesetaxel at 4 mg/kg and sacrificed between 1-168 hours.^1 Two additional studies have been conducted in dogs and monkeys.
(§2) Dogs and monkeys were dosed at 0.6 mg/kg and 1 mg/kg of ^14C-tesetaxel, respectively, and tissue distribution was assessed at 336 hours post-dose (14 days). These doses equate to ˜44% of the 27 mg/m^2 dose in an ongoing Phase 3 clinical study. In vivo radioactivity concentrations in the cerebrum and cerebellum were compared to plasma concentrations and mean tumor GI50 (concentration resulting in 50% tumor growth inhibition) determined by MTT assay in 23 tumor cell lines.

[3] = Terminal plasma half-life in humans
[4] = In vivo tissue distribution of 14C-tesetaxel in monkeys; design: species or system monkey; settings: for t1/2 / Cerebellum / Cerebrum / Plasma: 1 mg/kg; for Cerebellum / Cerebrum / Plasma: 14 days post-dose, radioactivity
Description: as §1, §2

[5] = dog, single oral dose of 0.6 mg/kg, N=3
[6] = monkey, single oral dose of 1 mg/kg, N=3

## CC(=O)O[C@@]12CO[C@@H]1CC[C@@]1(C)[C@@H]3O[C@H](CN(C)C)O[C@@H]3C3=C(C)[C@@H](OC(=O)[C@H](O)[C@@H](NC(=O)OC(C)(C)C)c4ncccc4F)C[C@@](O)([C@@H](OC(=O)c4ccccc4)[C@@H]12)C3(C)C [Tesetaxel]
taxane-resistant tumors
  Activity against taxane-resistant tumors: retain activity against taxane-resistant tumors
[1]; CNS tissue
  CNS tissue binding: 98.9%
[1]; plasma
  Human plasma binding: 98.2%
[2]; dog, IV
  t1/2: 72 h
  Cerebellum: 7.8 ± 0.6 ng eq/g
  Cerebrum: 16.8 ± 2.9 ng eq/g
  Plasma: 0.5 ± 0.0 ng eq/mL
[2]; dog, PO
  t1/2: 96 h
  Cerebellum: 6.1 ± 1.9 ng eq/g
  Cerebrum: 10.9 ± 4.0 ng eq/g
  Plasma: 0.9 ± 0.1 ng eq/mL
[2]; dog, single oral dose of 0.6 mg/kg, 14 days after dosing
  Cerebrum/Plasma: 12x
[2]; [5]
  14C-Tesetaxel Radioactivity Concentration 14 Days after Dosing, Cerebrum (Mean ± SD): 10.9 ± 4.0 ng eq./g or mL
  14C-Tesetaxel Radioactivity Concentration 14 Days after Dosing, Plasma (Mean ± SD): 0.9 ± 0.1 ng eq./g or mL
[2]; dogs, oral (PO) or intravenous (IV) administration
  CNS penetration: CNS penetration was observed
[3]
  Terminal plasma half-life (t1/2): ~190 h
[4]; monkey, IV
  t1/2: 72 h
  Cerebellum: 18 ± 1.0 ng eq/g
  Cerebrum: 21 ± 2.0 ng eq/g
  Plasma: 1.0 ± 0.0 ng eq/mL
[4]; monkey, PO
  t1/2: 52.8 h
  Cerebellum: 4.4 ± 1.7 ng eq/g
  Cerebrum: 6.5 ± 3.8 ng eq/g
  Plasma: 0.9 ± 0.2 ng eq/mL
[4]; monkey, single oral dose of 1 mg/kg, 14 days after dosing
  Cerebrum/Plasma: 7x
[4]; [6]
  14C-Tesetaxel Radioactivity Concentration 14 Days after Dosing, Cerebrum (Mean ± SD): 6.5 ± 3.8 ng eq./g or mL
  14C-Tesetaxel Radioactivity Concentration 14 Days after Dosing, Plasma (Mean ± SD): 0.9 ± 0.2 ng eq./g or mL
[4]; monkeys, oral (PO) or intravenous (IV) administration
  CNS penetration: CNS penetration was observed
